Experimental data taken from patent EP4177246A1, “FUSED OXAZEPINES AS INHIBITORS OF PEROXIREDOXINS” (Centro Atlántico del Medicamento, SA, priority 2021, dated 2023).

What was measured:
DU-145 = assay: MTT cell viability assay, DU-145 cells; type: cell-based; details: Homo sapiens, 48 h drug exposure
Method: DU-145 [American Type Culture Collection (ATCC) reference number HTB-81]. This a human prostate cancer cell line derived from a metastatic site (brain) of a person.
(§1) Cell viability was assayed by measuring the mitochondrial reduction of the tetrazolium salt 3-(4,5-methyltiazol-2yl)-2,5diphenyl-tetrazolium bromide] (MTT) (Applichen; A2231,0010) [Mosmann T. J Immunol Methods. 1983 16;65(1-2):55-63 (ref. 36); Chuan Y-C et al 2010. Oncogene. 29 (10), 1531-1542 (ref. 37)]. Cells were seeded in 96-well plates in medium (either RPMI, DMEM or McCoys depending on the recommendations from the ATCC) supplemented with 10% FBS (Lonza Cat. N°: 14-502F), 2mM L-Glut (Lonza Cat. N°: BE17-605E) and 100U/ml PEST (Lonza Cat. N°: DE17-605E) at a cell density of 1000-5000 cells/well (96 well plate). Cells were seeded at a density according to their exponential growth phase (normally 1000 to 5000/well). The cells were cultured at 37 °C in the dark in air containing 5% CO2. After 24h either vehicle (0.05% DMSO) or drug were added to culture medium at the indicated concentrations (10 to 0,01microM). After another 48 h, MTT (0.3 mg/ml) was added to cells, followed by incubation for 2-4h at 37 °C in the dark. The medium was then removed and the precipitated formazan was solubilized by the addition of DMSO (200 µL).
(§2) The optical density was measured at 595 nm with the iMark Microplate Reader (BioRad, USA). Data was expressed as percent growth above the level in controls and the results in figures were plotted as means ± SEM of each test point from 3 replicates.
(§3) Statistical analysis. The concentration of drug that provokes 50% reduction of cell viability (IC50) was determined by using non-linear regression analysis and data were fitted to a log concentration vs normalized response curve in GraphPad software v5 (San Diego, CA).

HEL 92.1.7 = assay: MTT cell viability assay, HEL cells; type: cell-based; details: Homo sapiens, 48 h drug exposure
Method: HEL 92.1.7 [American Type Culture Collection (ATCC) reference number TIB-180]. This a human cancer cell line derived from the bone marrow of a person with erythroleukemia, which is a form of AML.
as §1, §2, §3

MDA-MB-231 = assay: MTT cell viability assay, MDA-MB-231 cells; type: cell-based, human; details: Homo sapiens, 48 h drug exposure
Method: MDA-MB-231 [American Type Culture Collection (ATCC) reference number HTB-26]. This a human breast cancer cell line derived from a metastatic site from a person.
as §1, §2, §3

K562 = assay: MTT cell viability assay, K562 cells; type: cell-based; details: Homo sapiens, 48 h drug exposure
Method: K562 [American Type Culture Collection (ATCC) reference number CCL-243]. This a human cancer cell line derived from the bone marrow of a person with CML.
as §1, §2, §3

PANC-1 = assay: MTT cell viability assay, PANC-1 cells; type: cell-based; details: Homo sapiens, 48 h drug exposure
Method: PANC-1 [American Type Culture Collection (ATCC) reference number CRL-1469]. This a human cancer cell line derived from the pancreas of a person.
as §1, §2, §3

MCF-7 = assay: MTT cell viability assay, MCF-7 cells; type: cell-based; details: Homo sapiens, MCF7, 48 h drug exposure
Method: as §1, §2, §3

| Compound | IC50 (DU-145) | IC50 (MDA-MB-231) | IC50 (K562) | IC50 (PANC-1) | IC50 (MCF-7) | IC50 (HEL 92.1.7) |
| --- | --- | --- | --- | --- | --- | --- |
| N#Cc1ccc(N2Cc3ccccc3OC3=C2C(=O)c2ccccc2C3=O)cc1 [Compound 2, 4-(6,11-dioxo-6,11-dihydrobenzo[f]naphtho[2,3-b][1,4]oxazepin-12(13H)-yl)benzonitrile] | > 10 µM | 4.02 µM | 0.57 µM | 5.6 µM | 4.22 µM | 0.35 µM |
| N#Cc1ccc(N2Cc3ccccc3OC3=C2C(=O)c2c(O)ccc(O)c2C3=O)cc1 [Compound 8, 4-(7,10-dihydroxy-6,11-dioxobenzo[f]naphtho[2,3-b][1,4]oxazepin-12(6H,11H,13H)-yl)benzonitrile] | 6.04 µM | 0.36 µM | 0.23 µM | 0.32 µM | 2.59 µM | 0.1 µM |
| NS(=O)(=O)c1ccc(N2Cc3ccccc3OC3=C2C(=O)c2c(O)ccc(O)c2C3=O)cc1 [Compound 40, 4-(7,10-dihydroxy-6,11-dioxo-6,11-dihydrobenzo[f]naphtho[2,3-b][1,4]oxazepin-12(13H)-yl)benzenesulfonamide] | 6.13 µM | 1.96 µM | 0.59 µM | 0.63 µM | 2.52 µM | 0.21 µM |

The next compounds have a lower IC50 (DU-145) than those just listed; values first:

| IC50 (DU-145) | IC50 (MDA-MB-231) | IC50 (K562) | IC50 (PANC-1) | IC50 (MCF-7) | Compound | IC50 (HEL 92.1.7) |
| --- | --- | --- | --- | --- | --- | --- |
| 3.41 µM | 0.19 µM | 0.07 µM | 0.38 µM | 1.28 µM | NC(=O)c1cccc(N2Cc3ccccc3OC3=C2C(=O)c2c(O)ccc(O)c2C3=O)c1 [Compound 54, 3-(7,10-dihydroxy-6,11-dioxo-6,11-dihydrobenzo[f]naphtho[2,3-b][1,4]oxazepin-12(13H)-yl)benzamide] | 0.09 µM |
| 0.54 µM | 0.21 µM | 0.05 µM | 0.28 µM | 0.72 µM | O=C1C2=C(C(=O)c3c(O)ccc(O)c31)N(c1ccc(N3CCOCC3)nc1)Cc1ccccc1O2 [Compound 59] | 0.06 µM |
| 1.32 µM | 0.27 µM | 0.1 µM | 1.55 µM | 3 µM | CN(C)c1ccc(N2Cc3ccccc3OC3=C2C(=O)c2c(O)ccc(O)c2C3=O)cn1 [Compound 62, 12-(6-(dimethylamino)pyridin-3-yl)-7,10-dihydroxy-12,13-dihydrobenzo[f]naphtho[2,3-b][1,4]oxazepine-6,11-dione] | 0.07 µM |
| 0.82 µM | 0.32 µM | 0.02 µM | 0.26 µM | 0.91 µM | CN1CCN(c2ccc(N3Cc4ccccc4OC4=C3C(=O)c3c(O)ccc(O)c3C4=O)cn2)CC1 [Compound 81, 7,10-dihydroxy-12-(6-(4-methylpiperazin-1-yl)pyridin-3-yl)-12,13-dihydrobenzo[f]naphtho[2,3-b][1,4]oxazepine-6,11-dione] | 0.05 µM |
